Data on one molecule can be found in patent US20150119698A1, “Compositions Comprising Near-Infrared Fluorescent Particles And Uses Thereof For Imaging Activated Immune Cells In the CNS” (priority 2012, published 2015).

Series [1] deals with brains of mice 6 days post infection with P. berghei ANKA versus naïve mice. The conditions noted are these: mouse, in vivo. How it is done: In an additional experiment, C57 black mice were infected with 80,000 parasites (P. berghei ANKA). […] Mice were scanned by IVIS™ optical imager. The measurements were performed for 5 hours. For each mouse, the intensity of brain ICG emission was compared to that of the foot. […] Five hours post injection mice were sacrificed and brains were scanned by TYPHOON™ imager.

The test system of series [2] is brain of mice following infection with Plasmodium berghei ANKA or naïve mice. Description: Probe distribution into the CNS in experimental cerebral malaria, images 4 hours post injection. It counts as in vivo. The following applies: tail vein injection.

`CC1(C)C(/C=C/C=C/C=C/C=C2\N(CCCCS(=O)(=O)O)c3ccc4ccccc4c3C2(C)C)=[N+](CCCCS(=O)(=O)[O-])c2ccc3ccccc3c21` [free ICG, Indocyanine green]: the “brain emission, infected versus naïve mice (statistical difference)” value in series [1] is reported as “not statistically different”. Also, in series [2] (mice infected with Plasmodium berghei ANKA), the “uptake into the brain of diseased mice” value is given as “but not free ICG, were preferentially uptaken into the brain”. Also, the “fluorescence in the brain of naïve mice” value in series [2] (naïve mice) was “no significant fluorescence”.
